# In patent US8932558B2, “Multi-subunit biological complexes for treatment of plaque-associated diseases” (Plaxgen Inc, priority 2007, dated 2015):
# Where a name gives a salt, the structure may show the parent alone.
# What was measured:
# [1] = target: iron-loaded abeta42 templates (Homo sapiens, UniProt P05067); test: Binding of proteins to iron-loaded abeta42 templates; conditions: SDS-PAGE
# Text: FIG. 46 illustrates an example involving the identification of proteins that bind to iron-loaded abeta42 templates. The iron-loaded abeta42 templates are combined with known and unknown cell extracts (CE) and subjected to CPA, as described herein. To determine which proteins successfully bind the templates, the final template complexes are suspended in denaturing sample buffer, boiled, and loaded into SDS-PAGE gel. The gels are then stained with coomassie blue or silver stain in order to visualize the binding proteins. […] In the negative control, no significant binding is observed when the proteins are incubated in the absence of the templates.
# In experiments such as these, known and unknown cell extract proteins that are used for the complex formation with the aggregates are diluted in PBS to a 1 mg/ml concentration and stored at −70° C. as 50 μl aliquots. These samples are thawed on ice and centrifuged (13000 rpm, 15 min, 4° C.) to remove any precipitation. The supernatant containing soluble proteins is used to form complexes with the aggregates. Various proteins are screened against the iron loaded abeta42 aggregates for examining their binding. Binding experiments are performed in PBS (50 μl, pH 7.3) containing 6.0 μg of iron loaded abeta 42 aggregates and 1.0 μg of each protein. The mixture is incubated at 37° C. for 1 hr. After that, the samples are centrifuged (9000 rpm, 9 min, 15° C.) and the complexes are washed five times with 100 μl PBST (PBS containing 0.05% of Tween 20). After each wash, the supernatant is discarded and the complexes are transferred to a new tube to avoid any carry-over of the proteins. The final complexes are suspended in 20 μl of PBS to which 5.0 μl of denaturing sample solublising buffer (Bio Rad, CA, USA) is added. After boiling the samples for 10 min they are loaded into 4-20% SDS-PAGE (Cambrex Bio Sci, ME, USA). The proteins in the gels are detected using coomassie blue or silver stain (Owl silver stain, Pierce, Ill., USA). All the binding and the CPA experiments are carried out in low protein bind 1.7 ml centrifuge tubes (Effentorf, Calif.).
# [2] = system: CO aggregates; test: Binding of proteins with calcium containing aggregates; conditions: 2 μg protein, 37° C., 1 hr
# Protocol: (§1) The Proteins used for binding with the aggregates are diluted first in the PBS to make 1 mg/ml concentration and then stored at −20° C. as 50 μl aliquots. These samples are then thawed on ice and centrifuged (10,000 rpm, 10 min, 4° C.) to remove any precipitation and the supernatant containing only the soluble proteins are used for binding studies. To start with, for identification of proteins binding with calcium containing aggregates, a number of proteins are screened individually with the aggregates. Binding experiment is performed in 100 μl reaction (50 μl PBS buffer and 50 μl of individual aggregates) containing 2 μg of protein and the mixtures are incubated at 37° C. for 1 hr. For control experiments, protein (2 μg) is mixed in 100 μl PBS without aggregates. After the binding, the mixture is centrifuged (2500 rpm, 2 min, 20° C.) and the pellet is washed four times with 200 μl PBST (Tween 20, 0.05%). After each wash the supernatant is discarded and the complexes are transferred to a new microfuge tube to avoid any carry-over of the proteins. The calcium containing aggregates-protein complexes are suspended in 20 μl of PBS to which 5 μl of EDTA (25 mM final concentration) is added for solubilization of the complexes. Finally, the solublized samples are used for protein quantitation using protein estimation kit (Pierce, Ill.) and the data are used in the Microsoft Excel program to generate Graph 1 (FIG. 4). All the binding experiments and subsequent CPA experiments are carried out in low protein bind 1.7 ml centrifuge tubes (Effentorf, Calif.). For all the following binding experiments the same buffer, centrifugation and washing conditions are used.
# [3] = system: CP aggregates; test: as above; conditions: 2 μg protein, 37° C., 1 hr
# Protocol: as §1
# [4] = system: thrombus generated from the in vitro assembled plaques complexes; test: Thrombolytic assay with PLG cascade proteins; type: biochemical; conditions: thrombus from cholesterol, lipids, CP and CO complexes
# Protocol: To examine this, both PLG and PLG activators are used to target these clots. Thrombolytic assays are carried out in 100 μl reaction containing thrombus, generated from 100 μl of aggregates or plaque complexes, 1 μg of PLG and 20 ng of u-PA or t-PA in PBS buffer. The reactions are incubated at 37° C. for 1 hr and after every 15 min the tubes are gently tapped to mix the contents. After 1 hr incubation, 1 ml of PBS is added to all the tubes and the samples are visually examined for dissolution of the thrombus.
# The thrombus generated from the cholesterol, lipids, CP, and CO complexes are incubated separately with PLG, u-PA and t-PA to examine whether these proteins individually could dissolve the clots.
# This could be due to the inhibition of u-PA by the PAI-1 thereby preventing the activation of the PLG. In the next experiment, the aggregates of CP-Cholesterol, CP-Lipids, CP-Cholesterol-Lipids, Cholesterol-Lipids, CO-Cholesterol and CO-Lipids are individually used in CPA for five cycles to assemble complexes followed by their thrombus generation.
# The example depicted in FIG. 18 illustrates the dissolution of thrombi by PLG and u-PA. […] Both the clots and the dissolved complexes are further examined under microscope to confirm the visual examination (FIGS. 18a, b, c and d). The thrombus formed in the urine is also dissolved by the action of PLG and u-PA.
# [5] = target: T1, PLG attached to complexes of iron loaded abeta42 aggregates (Homo sapiens, UniProt P00747); test: Activation of complex-bound PLG by u-PA or t-PA; type: biochemical
# T1 construct: Lys-Plasminogen (PLG); purchased Enzyme Research Laboratories (IN, USA)
# T1 sequence (P00747 97-810, one chain of several): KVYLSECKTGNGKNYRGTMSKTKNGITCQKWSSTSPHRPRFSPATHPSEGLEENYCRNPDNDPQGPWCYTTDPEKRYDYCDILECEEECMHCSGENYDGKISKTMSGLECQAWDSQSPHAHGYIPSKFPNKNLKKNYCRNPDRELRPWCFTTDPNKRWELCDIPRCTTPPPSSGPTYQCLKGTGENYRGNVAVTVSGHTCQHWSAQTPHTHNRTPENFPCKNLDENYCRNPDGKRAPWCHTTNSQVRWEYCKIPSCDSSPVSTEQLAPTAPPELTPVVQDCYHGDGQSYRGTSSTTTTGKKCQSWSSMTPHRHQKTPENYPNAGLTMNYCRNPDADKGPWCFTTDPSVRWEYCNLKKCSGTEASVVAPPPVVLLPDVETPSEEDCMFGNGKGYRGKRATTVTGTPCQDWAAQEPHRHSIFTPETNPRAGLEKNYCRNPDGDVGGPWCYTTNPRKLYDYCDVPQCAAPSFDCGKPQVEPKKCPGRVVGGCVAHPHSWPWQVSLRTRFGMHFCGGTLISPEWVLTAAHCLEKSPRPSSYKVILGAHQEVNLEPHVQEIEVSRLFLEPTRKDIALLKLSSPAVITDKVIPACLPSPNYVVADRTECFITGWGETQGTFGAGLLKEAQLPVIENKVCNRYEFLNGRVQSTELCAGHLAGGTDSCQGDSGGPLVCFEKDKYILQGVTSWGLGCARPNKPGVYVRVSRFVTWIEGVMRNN
# Protocol: This example illustrates a method of evaluating the conformation and functionality of PLG attached to template complexes. Three groups of experiments are carried out to add the PLG at different layers of plaque complex formation. Group I includes three independent reactions containing both the PLG and BSA (0.5 μg each) that are added in the first cycle of the complex formation with the templates (5.0 μg). Group II includes three reactions to which both the PLG and BSA (0.5 μg each) are added in the first cycle of complex formation followed by another cycle of binding of the resulting complexes with the CE proteins (6.0 μg). Similarly, Group III includes three reactions each containing 5.0 μg of CE proteins and 5.0 μg of the abeta42 templates for complex formation in the first cycle of binding. The resulting complexes are subjected to another cycle of binding with both the PLG and BSA (0.5 μg each). […] After treating with the PLG activators, all the complexes are washed and finally suspended in 20 μl of PBS. After boiling the complexes for 10 min in sample solublizing buffer they are loaded into 4-20% gradient SDS-PAGE. Further, the gel is processed for silver staining and the results are documented for analysis. […]
# [6] = system: iron loaded abeta42 aggregates mixed with CE proteins; test: Proteolysis of amyloid plaque complexes assembled on iron loaded abeta42 aggregates; type: biochemical; conditions: 20 ng protease, 37° C., 1 hr
# Protocol: This example illustrates the use of the invention to evaluate the proteolytic degradation of the amyloid complexes. For example, iron loaded abeta42 aggregates are mixed with CE proteins, and the resulting template complexes are treated with five different serine proteases. More specifically, nine independent reactions are carried out with each containing 5.0 μg of the iron-loaded aggregates of abeta42 and 6.0 μg of the CE proteins. After incubation and washing, the complexes are suspended in 50 μl of PBS. The nine complexes are sub-divided into two groups, with six individual complexes comprising Group I and three complexes comprising Group II. In order to interrogate the role of the plasminogen (PLG) activation system, which is implicated in the catabolism of amyloid peptides as well as the pathobiology of amyloid diseases (Melchor J P et al, 2003; Van Nostrand W E et al, 1999; Kranenburg O, 2005), the Group II complexes are subjected to another cycle of binding with both PLG (0.5 μg) and BSA (0.5 μg) proteins. After binding and washing, the PLG and BSA bound plaques complexes are suspended in 50 μl of PBS.
# For proteolysis analysis, five of the six Group I template complexes are incubated with 20 ng of each protease (plasnin, chymotrypsin, trypsin, proteinase K and urokinase). The remaining complex is used as a control without protease treatment. Among three complexes of the Group II containing PLG attached to them, one is treated with u-PA (20 ng), a second is treated with t-PA (20 ng) and the third complex is used as a control without protease treatment. All these plaque complexes are incubated at 37° C. for 1 hr and after every 15 min, the tubes are gently tapped in order to encourage mixing. After washing, both the proteases-treated and control plaque complexes are suspended in 20 μl PBS. The complexes are boiled for 10 min with sample solubilizing buffer and loaded in to 4-20% gradient SDS-PAGE. Further, the gels are processed for silver staining and the results are documented for further analysis.
# [7] = system: CP aggregates formation; test: Screen of known drugs for prevention of CP aggregates formation; conditions: for CP aggregates formation, dose dependence: sodium phosphate dibasic and calcium chloride 4 mM each
# [8] = system: CO, lipid and cholesterol aggregates formations; test: Effect of PGN27 on CO, lipid and cholesterol aggregates formation
# [9] = system: CP aggregates; test: Binding of PGN27 to CP aggregates and cyclic plaque assembly (CPA)
# [10] = system: plaque induced chronic inflammation; test: Drug treatment of mice with plaque induced chronic inflammation; conditions: 5-10 mg/kg per day orally, 8 weeks
# [11] = system: thrombus, generated from the CP-Chl aggregates; test: Effect of PGN27 on dissolution of thrombus; conditions: 2 mM, 1 hr
# [12] = system: plaque accumulation in the heart tissues; test: Drug treatment of asymptomatic induced atherosclerotic mice, histochemical analysis of heart tissues; conditions: 5-10 mg/kg per day orally, 8 weeks
# [13] = system: CP, CC, CO, and CaPPD aggregates; test: Binding of proteins with calcium containing aggregates (any of the four); conditions: 2 μg protein, 37° C., 1 hr
# Protocol: as §1, with “The calcium containing aggregates-protein complexes are suspended in 20 μl of PBS to which 5 μl of EDTA (25 mM final concentration) is added for solubilization of the complexes.” left out, “All the binding experiments and subsequent CPA experiments are carried out in low protein bind 1.7 ml centrifuge tubes (Effentorf, Calif.). For all the following binding experiments the same buffer, centrifugation and washing conditions are used.” left out
# iron-loaded abeta42 templates, sequence (P05067 672-713 limits assumed): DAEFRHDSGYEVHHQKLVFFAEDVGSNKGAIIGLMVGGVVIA
molecule,measurement,setting,value
CB: complement factor B,Binding with iron-loaded abeta42 templates,[1],bind with the templates
FIX: coagulation factor IX,Binding with the CO aggregates,[2],detected for binding
same,Binding with the CP aggregates,[3],detectable binding
same,Binding with iron-loaded abeta42 templates,[1],bind with the templates
PLG: plasminogen,"Dissolution of thrombus, protein incubated separately",[4],did not show any dissolution
same,"Activation of PLG bound in first cycle compared to second cycle, increasing u-PA","[5]; 25, 50, 100 ng u-PA",exhibits resistance even when incubated with increased concentrations of the u-PA
same,Activation of PLG bound in first cycle compared to second cycle,[5]; u-PA (20 ng) or t-PA,detectable level of resistance to activation
same,Binding with the CP aggregates,[3],detectable binding
same,Binding with iron-loaded abeta42 templates,[1],bind with the templates
chymotrypsin,Degradation of proteins bound to the aggregates,[6],degraded
C3: complement factor 3,Binding with the CP aggregates,[3],detectable binding
trypsin,Degradation of proteins bound to the aggregates,[6],degraded
rhHGF: recombinant human hepatocyte growth factor,Binding with iron-loaded abeta42 templates,[1],bind with the templates
"CN(C)[C@@H]1C(O)=C(C(N)=O)C(=O)[C@@]2(O)C(O)=C3C(=O)c4c(O)cccc4[C@@](C)(O)[C@H]3C[C@@H]12 [PGN27, tetracycline hydrochloride]",CP aggregates formation in the presence of antibiotic,"[7]; 5 mM drug, 5 mM sodium phosphate dibasic, 5 mM calcium chloride, 30 min 37° C.",prevented the CP aggregates formation
same,"CP aggregates formation, dose dependence",[7]; 0.5 and 0.25 mM drug,CP aggregates formation occurred
same,"CP aggregates formation, dose dependence","[7]; 4, 2 and 1 mM drug",did not show the CP aggregates formation
same,"Inhibition of CO, lipid and cholesterol aggregates formations",[8],did not inhibit
same,Binding with the CP aggregates (colorless to yellow),"[9]; 2 mM, 37° C., 30 min",specific and stable binding
same,Effect on binding of proteins with the CP aggregates in CPA,"[9]; CP-PGN27 complexes, four cycles of CPA, gel analysis",did not compete or affect binding of the proteins
same,Symptoms of plaque inflammation compared to the control animal,[10],reduced symptoms of plaque inflammation
same,Dissolution of the thrombus,[11],no dissolution of the thrombus
same,"Plaque accumulation in heart tissues, histochemical analysis",[12],reduced plaque accumulation
CD: complement factor D,Binding with iron-loaded abeta42 templates,[1],bind with the templates
ProS: protein S,Binding with the CP aggregates,[3],detectable binding
same,Binding with iron-loaded abeta42 templates,[1],bind with the templates
HIN: human insulin,"Binding with any of the CP, CC, CO, CaPPD aggregates",[13],no detectable binding
same,Binding with iron-loaded abeta42 templates,[1],no detectable binding
